Legend:
HRI = target: T1, HRI (Homo sapiens, UniProt Q9BQI3); experiment: HRI phosphorylation in human Huh-7 hepatic cells (Western-blot, ratio phosphorylated/total HRI); assay type: cell-based; settings: Huh-7 cells, 24 h, 10 μM; for ratio phosphorylated/total HRI: vs vehicle (DMSO) control, FIG. 1, FIG. 2
T1 construct: endogenous in cells; host or cells: Huh-7 human hepatic cells
Text: Data are presented as the mean±SD (n=4). *p<0.05 vs. control (CT) cells. ^#p<0.05 vs. BTdCPU-treated cells. BTdCPU=1-(benzo[d][1,2,3]thiadiazol-6-yl)-3-(3,4-dichlorophenyl)urea (compound (2) in Chen T. et al., ibid.).
Data are presented as the mean±SD (n=4). ***p<0.001 and *p<0.05 vs. control (CT) cells. ^#p<0.05 vs. BTdCPU-treated cells. Compound I-2 (1-(4-chloro-3-(trifluoromethyl)phenyl)-3-(4-chloro-3-(trifluoromethyl)phenyl)urea is not part of the present invention, but it has been introduced in some figures for comparative purposes.
HRI is activated by autophosphorylation and this has been used for evaluating its activation. In fact, the hyperphosphorylation of HRI is accompanied by an increase of its eIF2α kinase activity (cf. Lu L. et al., “Translation initiation control by heme-regulated eukaryotic initiation factor 2a kinase in erythroid cells under cytoplasmic stresses”, Mol. Cell. Biol., 2001, vol. 21, pp. 7971-7980). Therefore, HRI protein constitutively exists as the native nonphosphorylated 76-kDa species and/or the autoactivated/autophosphorylated 92-kDa, although the relative abundance of each HRI species tends to vary depending on the cells examined (cf. Acharya P. et al., “Hepatic heme-regulated inhibitor (HRI) eukaryotic initiation factor 2a kinase: A protagonist of heme-mediated translational control of CYP2B enzymes and a modulator of basal endoplasmic reticulum stress tone”, Mol. Pharmacol, 2010, vol. 77, pp. 575-592). […] Thus Huh-7 cells were incubated for 24 h with vehicle (DMSO, CT cells) or 10 μM of each of the assayed compound. The effects of these compounds were compared to the well-known HRI activator BTdCPU.

eIF2α = eIF2α phosphorylation in human Huh-7 hepatic cells (Western-blot); assay type: cell-based; settings: Huh-7 cells, 24 h, 10 μM, compared to BTdCPU; FIG. 3, FIG. 4
Text: Data are presented as the mean±SD (n=4). **p<0.01 and *p<0.05 vs. control (CT) cells. ^##p<0.01 and ^#p<0.05 vs. BTdCPU-treated cells.
Data are presented as the mean±SD (n=4). *p<0.05 vs. control (CT) cells.
HRI is a kinase that phosphorylates eukaryotic Initiation Factor 2α (eIF-2a) at its Ser 51 residue to execute protein synthesis regulation and thereby HRI activators cause the phosphorylation of eIF2α as previously described (Chen T, et al., ibid). To confirm whether the new synthesized compounds were able to activate the HRI eIF2α kinase inventors examined the eIF2α phosphorylation caused by these compounds compared to the well-known HRI eIF2α kinase activator BTdCPU. Human Huh-7 hepatocytes were incubated for 24 h with vehicle (DMSO, CT cells) or 10 μM of each of the assayed compounds. eIF2α phosphorylation was determined by Western-blot.

FGF21 = FGF21 expression in hepatocytes (quantitative real-time RT-PCR); assay type: cell-based, human; settings: Huh-7 hepatocytes, 24 h, 10 μM; FIG. 9
Description: Human Huh-7 hepatocytes were incubated for 24 h in the absence (Control, CT) or in the presence of compounds (10 μM). Assessment by quantitative real-time RT-PCR of FGF21. Data are presented as the mean±SD (n=4 per group). ***p<0.001 and **p<0.01 vs CT. ^###p<0.001, ^##p<0.01 and ^#p<0.05 vs BTCtFPU. ^††p<0.01 and ^†p<0.05 vs BTdCPU. BTCtFPU=1-(benzo[d][1,2,3]thiadiazol-6-yl)-3-(4-chloro-3-(trifluoromethyl)phenyl)urea (compound (3) in Chen T. et al., ibid.).

T1 sequence (Q9BQI3 whole entry): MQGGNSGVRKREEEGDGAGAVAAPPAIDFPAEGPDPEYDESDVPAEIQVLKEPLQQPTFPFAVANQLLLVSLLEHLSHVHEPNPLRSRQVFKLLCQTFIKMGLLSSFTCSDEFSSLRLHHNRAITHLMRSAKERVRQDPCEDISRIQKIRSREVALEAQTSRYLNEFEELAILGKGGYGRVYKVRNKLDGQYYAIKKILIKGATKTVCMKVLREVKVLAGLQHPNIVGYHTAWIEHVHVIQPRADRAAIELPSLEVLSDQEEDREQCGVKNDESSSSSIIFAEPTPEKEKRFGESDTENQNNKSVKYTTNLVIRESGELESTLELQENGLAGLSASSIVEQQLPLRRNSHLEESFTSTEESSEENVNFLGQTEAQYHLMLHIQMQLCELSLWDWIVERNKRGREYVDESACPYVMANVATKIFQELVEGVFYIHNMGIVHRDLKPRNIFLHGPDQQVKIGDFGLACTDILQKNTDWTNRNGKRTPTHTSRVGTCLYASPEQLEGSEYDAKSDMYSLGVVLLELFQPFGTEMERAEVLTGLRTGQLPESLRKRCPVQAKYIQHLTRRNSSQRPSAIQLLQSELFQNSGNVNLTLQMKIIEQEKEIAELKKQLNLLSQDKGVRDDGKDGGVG

SMILES	melting point [°C]	total HRI (HRI; FIG. 2)	ratio phosphorylated/total HRI (HRI)	eIF2α phosphorylation (eIF2α)	FGF21 expression compared with BTCtFPU (FGF21)	FGF21 expression compared with BTdCPU (FGF21)
O=C(Nc1ccc(S(F)(F)(F)(F)F)cc1)Nc1ccc2nnsc2c1 [compound I-25, 1-(Benzo[d][1,2,3]thiadiazol-6-yl)-3-(4-(pentafluoro-λ^6-sulfanyl)phenyl)urea]	274 to 275		increased the ratio phosphorylated/total HRI			
O=C(Nc1cccc(S(F)(F)(F)(F)F)c1)Nc1ccc2nnsc2c1 [compound I-26, 1-(Benzo[d][1,2,3]thiadiazol-6-yl)-3-(3-(pentafluoro-λ^6-sulfanyl)phenyl)urea]	229 to 230		increased the ratio phosphorylated/total HRI	marked increase in eIF2α phosphorylation, higher than the observed with BTdCPU	higher expression in FGF21 than BTCtFPU	higher increase in FGF21 expression than that observed for compound BTdCPU
O=C(Nc1ccc2nnsc2c1)Nc1cc(S(F)(F)(F)(F)F)ccc1Cl [compound I-27, 1-(Benzo[d][1,2,3]thiadiazol-6-yl)-3-(2-chloro-5-(pentafluoro-λ^6-sulfanyl)phenyl)urea]	227		increased the ratio phosphorylated/total HRI	marked increase in eIF2α phosphorylation, higher than the observed with BTdCPU		
O=C(Nc1cccc(S(F)(F)(F)(F)F)c1)Nc1cccc(S(F)(F)(F)(F)F)c1 [compound I-36, 1,3-Bis(3-(pentafluoro-λ^6-sulfanyl)phenyl)urea]					significant higher increase than compound BTCtFPU	significant higher increase in FGF21 expression than compound BTdCPU

Further lines, with some results ahead:

melting point [°C]	total HRI (HRI; FIG. 2)	SMILES	ratio phosphorylated/total HRI (HRI)	eIF2α phosphorylation (eIF2α)	FGF21 expression compared with BTCtFPU (FGF21)	FGF21 expression compared with BTdCPU (FGF21)
225		O=C(Nc1ccc2nnsc2c1)Nc1cccc(S(F)(F)(F)(F)F)c1Cl [compound I-28, 1-(Benzo[d][1,2,3]thiadiazol-6-yl)-3-(2-chloro-3-(pentafluoro-λ^6-sulfanyl)phenyl)urea]	increased the ratio phosphorylated/total HRI	marked increase in eIF2α phosphorylation, higher than the observed with BTdCPU		
213 to 214		O=C(Nc1ccc(Cl)c(S(F)(F)(F)(F)F)c1)Nc1ccc2nnsc2c1 [compound I-29, 1-(Benzo[d][1,2,3]thiadiazol-6-yl)-3-(4-chloro-3-(pentafluoro-λ^6-sulfanyl)phenyl)urea]	increased the ratio phosphorylated/total HRI	marked increase in eIF2α phosphorylation, higher than the observed with BTdCPU		higher increase in FGF21 expression than that observed for compound BTdCPU
227 to 228		O=C(Nc1cc(S(F)(F)(F)(F)F)ccc1Cl)Nc1cc(S(F)(F)(F)(F)F)ccc1Cl [compound I-32, 1,3-Bis(2-chloro-5-(pentafluoro-λ^6-sulfanyl)phenyl)urea]				
156 to 157	reduction in total HRI	O=C(Nc1ccc(Cl)c(C(F)(F)F)c1)Nc1cc(S(F)(F)(F)(F)F)ccc1Cl [compound I-33, 1-(4-Chloro-3-(trifluoromethyl)phenyl)-3-(2-chloro-5-(pentafluoro-λ^6-sulfanyl)phenyl)urea]	increase caused by I-33 was also statistically significant	enhanced eIF2α phosphorylation to values similar to those achieved by BTdCPU exposure		
216 to 217		O=C(Nc1ccc(S(F)(F)(F)(F)F)cc1)Nc1cccc(S(F)(F)(F)(F)F)c1 [compound I-37, 1-(3-(Pentafluoro-λ^6-sulfanyl)phenyl)-3-(4-(pentafluoro-λ^6-sulfanyl)phenyl)urea]			significant higher increase than compound BTCtFPU	significant higher increase in FGF21 expression than compound BTdCPU
237 to 238		O=C(Nc1ccc(Cl)c(S(F)(F)(F)(F)F)c1)Nc1ccc(Cl)c(S(F)(F)(F)(F)F)c1 [compound I-38, 1,3-Bis(4-chloro-3-(pentafluoro-λ^6-sulfanyl)phenyl)urea]			significant higher increase than compound BTCtFPU	significant higher increase in FGF21 expression than compound BTdCPU
